Counter-ions that a name gives are not always drawn.
These compounds were tested on 293T-HRE-GFP-luc cells (assay: Cell-Based Reporter Assay for IC50 Determinations). Conditions: 30 min normoxia then 6 hrs hypoxia (1% O2), luminescence, four-parameter logistic fit, read-out: Activity (IC50, HRE luciferase reporter).
Procedure: Cell-Based Reporter Assay for IC50 Determinations
293T-HRE-GFP-luc cells were routinely maintained in DMEM media (high glucose version with GlutaMAX and HEPES, Gibco, catalog #10564) supplemented with 10% fetal bovine serum and 2 μg/mL puromycin (Invitrogen, catalog #A11138-03) using a humidified incubator (normoxia conditions consisting of 37° C., 5% CO2 and ambient O2).
In preparation for the reporter assay, cells were harvested and resuspended in DMEM media (high glucose version with GlutaMAX and HEPES) supplemented with 10% fetal bovine serum. Cells were inoculated into 384-well white Culturplates (Perkin Elmer catalog #6007680) at a density of 12,000 cells/well in a volume of […]. The microplates were incubated overnight (approximately 17-19 hours) at 37° C. with 5% CO2 and ambient O2. Stock solutions of the test compounds were prepared in DMSO (Sigma, Catalog #D2650) and serially diluted 1:3 using DMSO. Compounds were additionally diluted (1:50) with culturemedium and 10 µL were added per well to the Culturplate. Following a 30 min. incubation under normoxia conditions, the plates were incubated in hypoxia for 6 hrs. (37° C., 5% CO2 and 1% O2). Steadylite Plus (Perkin Elmer, catalog #6016751) was then added ([…]), the plates were mixed on an orbital shaker at room temperature in the dark for 15 min., and luminescence was measured using an Envision plate reader (Perkin Elmer). IC50 values were calculated using a four-parameter logistic curve fit. Results are shown below in Table 2; ND indicates no data.

Compound | IC50 [nM]
Cc1nc(-c2nc(-c3ccc(OC(F)(F)F)cc3)no2)oc1Cc1cccc(Br)c1 [Example 1, 5-(5-(3-Bromobenzyl)-4-methyloxazol-2-yl)-3-(4-(trifluoromethoxy)phenyl)-1,2,4-oxadiazole] | 1000 to 10000
Cc1nc(-c2nc(-c3ccc(OC(F)(F)F)cc3)no2)sc1Cc1cccc(N2CCN(C)CC2)c1 [Example 2, 5-(4-Methyl-5-(3-(4-methylpiperazin-1-yl)benzyl)thiazol-2-yl)-3-(4-(trifluoromethoxy)phenyl)-1,2,4-oxadiazole] | < 100
Cc1nc(-c2nc(-c3ccccc3)co2)sc1Cc1cccc(N2CCN(C)CC2)c1 [Example 3, 2-(4-Methyl-5-(3-(4-methylpiperazin-1-yl)benzyl)thiazol-2-yl)-4-phenyloxazole] | 1000 to 10000
Cc1oc(-c2nc(-c3ccc(OC(F)(F)F)cc3)no2)nc1Cc1cccc(Br)c1 [Example 4, 5-(4-(3-Bromobenzyl)-5-methyloxazol-2-yl)-3-(4-(trifluoromethoxy)phenyl)-1,2,4-oxadiazole] | 1000 to 10000
Cc1oc(-c2nc(-c3ccc(OC(F)(F)F)cc3)no2)nc1Cc1cccc(N2CCN(C)CC2)c1 [Example 5, 1-methyl-4-(3-((5-methyl-2-(3-(4-(trifluoromethoxy)phenyl)-1,2,4-oxadiazol-5-yl)oxazol-4-yl)methyl)phenyl)piperazin-1-ium trifluoroacetate] | < 100
Cc1sc(-c2nc(-c3ccc(OC(F)(F)F)cc3)no2)nc1Cc1cccc(N2CCN(C)CC2)c1 [Example 6, 1-methyl-4-(3-((5-methyl-2-(3-(4-(trifluoromethoxy)phenyl)-1,2,4-oxadiazol-5-yl)thiazol-4-yl)methyl)phenyl)piperazin-1-ium trifluoroacetate] | < 100
Cc1nc(-c2nc(-c3ccc(OC(F)(F)F)cc3)no2)oc1Cc1cccc(N2CCN(C)CC2)c1 [Example 7, 1-Methyl-4-(3-((4-methyl-2-(3-(4-(trifluoromethoxy)phenyl)-1,2,4-oxadiazol-5-yl)oxazol-5-yl)methyl)phenyl)piperazin-1-ium trifluoroacetate] | < 100
Cn1nc(-c2nc(-c3ccc(OC(F)(F)F)cc3)no2)nc1Cc1ccnc(N2CCNCC2)c1 [Example 8, 4-(4-((1-Methyl-3-(3-(4-(trifluoromethoxy)phenyl)-1,2,4-oxadiazol-5-yl)-1H-1,2,4-triazol-5-yl)methyl)pyridin-2-yl)piperazin-1-ium formate] | < 100
CN1CCN(c2cc(Cc3nc(-c4nc(-c5ccc(OC(F)(F)F)cc5)no4)nn3C)ccn2)CC1 [Example 9, 1-Methyl-4-(4-((1-methyl-3-(3-(4-(trifluoromethoxy)phenyl)-1,2,4-oxadiazol-5-yl)-1H-1,2,4-triazol-5-yl)methyl)pyridin-2-yl)piperazin-1-ium formate] | < 100
CN1CCN(c2cc(Cc3nc(-c4nc(-c5ccc(OC(F)(F)F)cc5)no4)cn3C)ccn2)CC1 [Example 10, 5-(1-Methyl-2-((2-(4-methylpiperazin-1-yl)pyridin-4-yl)methyl)-1H-imidazol-4-yl)-3-(4-(trifluoromethoxy)phenyl)-1,2,4-oxadiazole] | < 100
Cc1oc(-c2nc(-c3ccc(OC(F)(F)F)cc3)no2)nc1Cc1cccc(N2CCOCC2)c1 [Example 11, 4-(3-((5-Methyl-2-(3-(4-(trifluoromethoxy)phenyl)-1,2,4-oxadiazol-5-yl)oxazol-4-yl)methyl)phenyl)morpholine] | < 100
Cn1cc(-c2nc(-c3ccc(OC(F)(F)F)cc3)no2)nc1Cc1ccnc(N2CCNCC2)c1 [Example 12, 4-(4-((1-methyl-4-(3-(4-(trifluoro-methoxy)phenyl)-1,2,4-oxadiazol-5-yl)-1H-imidazol-2-yl)methyl)pyridin-2-yl)piperazin-1-ium formate] | 1000 to 10000
Cc1oc(-c2nc(-c3ccc(OC(F)(F)F)cc3)no2)nc1Cc1cccc(N2CCCCC2)c1 [Example 13] | < 100
Cc1oc(-c2nc(-c3ccc(OC(F)(F)F)cc3)no2)nc1Cc1cccc(N(C)C)c1 [Example 14, N,N-dimethyl-3-((5-methyl-2-(3-(4-(trifluoromethoxy)phenyl)-1,2,4-oxadiazol-5-yl)oxazol-4-yl)methyl)aniline] | < 100

From US9115120B2, “Heterocyclic modulators of HIF activity for treatment of disease” (Board of Regents, The University of Texas System, priority 2012, dated 2015)
